Data taken from US7189751B2, “Oxa(thia)zolidine compounds, process for preparation thereof and anti-inflammatory agents” (Nippon Soda Co., Ltd., priority 2001, dated 2007).

Tested on: Mouse Delayed Contact Dermatitis Induced by Picryl Chloride
Assay: Mouse delayed contact dermatitis induced by picryl chloride
Format: in vivo
Procedure: Pharmacological Test Example 3 Mouse Delayed Contact Dermatitis Induced by Picryl Chloride
This pharmacological test was carried out referring to the method of Asherson, G. L. & Ptak, W. (Immunology, 15: 405–416 (1968).) and the method of Jun Hiroi (Folia Pharmacology of Japan, 86: 233–239 (1985).). More specifically, hairs on the abdomen of an ICR-strain male mouse were removed using an electric clipper and an electric shaver. Then, 0.1 mL of 7% ether solution of picryl chloride (Tokyo Kasei Kogyo Co., Ltd., C 0307) was applied onto the abdomen for sensitization. On the sixth day after the sensitization, 20 μL/ear of 1% olive oil solution of picryl chloride was topically applied to the anterior and posterior surfaces of both ears of the mouse to induce contact dermatitis (first induction). Before and 24 hours after the induction, the thicknesses of the particular parts on the both ears were measured three times, respectively, using a digimatic micrometer (Mitsutoyo Co., Ltd.) to work out the average values. Ear edema of the both ears was respectively determined by subtracting the average thickness of the each ear before the induction from that on 24 hours after the induction, so that a grouping was carried out to separate the appropriate individuals. On the fourth day after the first induction, the hairs on the abdomen were removed again, and 0.1 mL of 7% ethanol solution of picryl chloride was applied thereto for additional sensitization. The contact dermatitis for evaluating activity was induced by re-applying 20 μL/ear of 1% olive oil solution of picryl chloride to the anterior and posterior surfaces of both ears (second induction) on the seventh day after the additional sensitization (on the […] after the first sensitization). The activity of each compound of the present invention was evaluated as the inhibition on the contact dermatitis as compared with that of the vehicle applied control. That is, the thicknesses of the particular portions of the both ears were measured respectively three times with a digimatic micrometer to work out the mean values before, 24 hours and 48 hours after the second induction. Ear swelling was determined by subtracting the ear thickness before the second induction from that on 24 hours and 48 hours after the second induction, respectively. Topical application activity was evaluated by applying 25 μL of the acetone solution of the compound of the present invention similarly to the anterior and posterior surfaces of the right ear one hour before and 16 hours after the second induction. As the positive control, 0.02 mg/20 μL of acetone solution of Dexamethasone (hereinafter referred to as DEX, Wako Pure Chemical Industries Ltd., 047-18863) was applied similarly as for the compound of the present invention. With respect to the inhibitory activity in topical application tests, the topical activity was determined by the inhibition of the applied right ear edema, and the translocation and distribution property was determined by the activity onto the swelling of non-treated left ear. Oral administration activity was evaluated by administrating 0.5% methyl cellulose suspension of the compound of the present invention forcibly and perorally to the mouse an hour before and 16 hours after the second induction. As the positive control, 20 mg/kg of Prednisolone (Sigma Chemical Co., P 6004) suspension was administrated similarly as for the compounds of the present invention. […] As the examples, the body weight changes in the mice for 48 hours after the second induction when they were administrated with the compounds shown in Table 5 are shown in Table 6.

Question: Which results are given for `CCOC(=O)C(=C1N[C@@H](C)[C@H](c2ccc(Cl)cc2)S1)[N+](=O)[O-]` (relative stereo) [Compound 2-29, Trans-5-(4-chlorophenyl)-4-methyl-2-(1-ethoxycarbonyl-1-nitromethylene)-thiazolidine]?
Answer: Change in body weight 48 hours after induction (Mean ± S.E.) (1.5 mg/ear × 2, vehicle control −0.45 ± 0.20): -0.06 ± 0.15 g; Change in body weight 48 hours after induction (Mean ± S.E.) (%) (1.5 mg/ear × 2, vehicle control −1.29 ± 0.59): −0.20 ± 0.48%; Ear swelling after 24 hours, Right (Applied) (Mean ± S.E., mm) (topical 1.5 mg/25 μL/ear × 2, vehicle control 0.299 ± 0.006): 0.261 ± 0.012 mm; Ear swelling after 24 hours, Left (Not applied) (Mean ± S.E., mm) (topical 1.5 mg/25 μL/ear × 2 on right ear, vehicle control 0.284 ± 0.008): 0.243 ± 0.020 mm
